Here are results for ten compounds from US10787432B2, “N-[(pyridyloxy)propanyl]benzamides” (Boehringer Ingelheim International GmbH, priority 2016, dated 2020).

Each structure is given as a SMILES string.

Tested on in the first series: not listed separately
Description: Assay C: Metabolic stability in human liver microsomes (Human MST). Particulars: pooled human liver microsomes, pH 7.6; human liver microsomes 1 mg/mL, compound 1 μM, 37° C., NADPH; read-out: Human MST t1/2. The class given is in vitro ADME. The procedure:
C. Assessment of Metabolic Stability in Human Liver Microsomes (Human MST)
The metabolic stability of the compounds according to the invention may be investigated as follows:
The metabolic degradation of the test compound is assayed at 37° C. with pooled human liver microsomes. The final incubation volume of 100 μL per time point contains TRIS buffer pH 7.6 at room temperature (0.1 M), MgCl2 (5 mM), microsomal protein (1 mg/mL) and the test compound at a final concentration of 1 μM. Following a short pre-incubation period at 37° C., the reactions are initiated by addition of beta-nicotinamide adenine dinucleotide phosphate, reduced form (NADPH, 1 mM), and terminated by transferring an aliquot into solvent after different time points. After centrifugation (10000 g, 5 min), an aliquot of the supernatant is assayed by LC-MS/MS for the amount of parent compound. The half-life (t1/2) is determined by the slope of the semi-logarithmic plot of the concentration-time profile.
(Liver microsomes are a subcellular fraction often used to study metabolism.)
Turning to `CCN(C(=O)c1ccccc1-c1nnc(C)o1)[C@@H](C)COc1ncc(C(F)(F)F)cc1F` [Example 68], the half-life at 1 μM is 53 min.
On the same count and under the same terms, with `CCN(C(=O)c1cc(F)ccc1-n1nccn1)[C@@H](C)COc1ccc(C(F)(F)F)cn1` [Example 3] the figure was 62 min; with `CCN(C(=O)c1cccc(F)c1-c1ncccn1)[C@@H](C)COc1ccc(Br)cn1` [Example 125], > 130 min; with `CCN(C(=O)c1cccc(C)c1-c1nnc(C)o1)[C@@H](C)COc1ncc(C(F)(F)F)cc1F` [Example 64], 15 min.
On the same count and under the same terms, with `CCN(C(=O)c1ccc(F)cc1-c1nnc(C)o1)[C@@H](C)COc1ncc(C(F)(F)F)cc1F` [Example 55] the figure was 64 min.
Consider `CCN(C(=O)c1cccc(C)c1-c1nnc(C)o1)[C@@H](C)COc1ccc(C(F)(F)F)cn1` [Example 20], for which the half-life at 1 μM amounted to 20 min.
On to `CCN(C(=O)c1cc(OC)ccc1-n1nccn1)[C@@H](C)COc1ccc(Cl)cn1` [Example 33], for which the half-life at 1 μM was 20 min.
`CCN(C(=O)c1ccc(C#N)cc1-n1nccn1)[C@@H](C)COc1ncc(C(F)(F)F)cc1F` [Example 69]: the half-life at 1 μM came to 43 min.
Consider `CCN(C(=O)c1ccc(Cl)cc1-n1nccn1)[C@@H](C)COc1ccc(C(F)(F)F)cn1` [Example 26], for which the half-life at 1 μM was 15 min.
With `CCN(C(=O)c1ccccc1-c1nnc(C)o1)[C@@H](C)COc1ccc(C(F)(F)F)cn1` [Example 22], the half-life at 1 μM amounted to 84 min.

The target in another series is T1, human Orexin 1 receptor (Homo sapiens, UniProt O43613).
T1 construct: stably expressing the full-length human Orexin 1 receptor; expressed in transfected cells; host or cells: CHO-K1 (CHO-K1/hOX1), co-expressing aequorin
T1 sequence (O43613 1-425): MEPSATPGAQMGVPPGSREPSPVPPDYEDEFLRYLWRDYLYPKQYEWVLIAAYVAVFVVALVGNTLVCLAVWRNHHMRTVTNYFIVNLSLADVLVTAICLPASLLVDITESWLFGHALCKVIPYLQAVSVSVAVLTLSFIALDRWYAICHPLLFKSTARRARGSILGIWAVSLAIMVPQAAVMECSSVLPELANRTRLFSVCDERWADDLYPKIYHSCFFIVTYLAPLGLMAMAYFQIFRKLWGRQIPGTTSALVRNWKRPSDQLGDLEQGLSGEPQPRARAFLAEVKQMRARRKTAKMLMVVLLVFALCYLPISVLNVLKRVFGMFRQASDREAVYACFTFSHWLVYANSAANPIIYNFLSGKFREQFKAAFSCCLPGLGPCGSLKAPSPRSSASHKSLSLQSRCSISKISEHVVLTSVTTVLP
In words: Assay A: In vitro testing of OX1R potency: OX1R IP1 (HTRF, CHO-K1/hOX1 cells, Orexin A as agonist). Type of series: cell-based. Particulars: OX1R Kb at 0.5 nM Orexin A. (In general: TR-FRET usually uses a lanthanide donor and a delayed reading to cut background.)
`CCN(C(=O)c1ccccc1-c1nnc(C)o1)[C@@H](C)COc1ncc(C(F)(F)F)cc1F` [Example 68]: the “OX2R Kb/OX1R Kb” value was 527.
In the case of `CCN(C(=O)c1ccc(F)cc1-c1nnc(C)o1)[C@@H](C)COc1ncc(C(F)(F)F)cc1F` [Example 55], the “OX2R Kb/OX1R Kb” value came to 430.
As to `CCN(C(=O)c1ccc(C#N)cc1-n1nccn1)[C@@H](C)COc1ncc(C(F)(F)F)cc1F` [Example 69], the “OX2R Kb/OX1R Kb” value amounted to 136.
Consider `CCN(C(=O)c1ccccc1-c1nnc(C)o1)[C@@H](C)COc1ccc(C(F)(F)F)cn1` [Example 22], for which the “OX2R Kb/OX1R Kb” value is 217.

Still in this series, the particulars now being: OX1R Kb at 50 nM Orexin A.
In the case of `CCN(C(=O)c1cc(F)ccc1-n1nccn1)[C@@H](C)COc1ccc(C(F)(F)F)cn1` [Example 3], the “OX2R Kb/OX1R Kb” value was determined as 157.
On to `CCN(C(=O)c1cccc(F)c1-c1ncccn1)[C@@H](C)COc1ccc(Br)cn1` [Example 125], for which the “OX2R Kb/OX1R Kb” value came to 355.
Regarding `CCN(C(=O)c1cccc(C)c1-c1nnc(C)o1)[C@@H](C)COc1ncc(C(F)(F)F)cc1F` [Example 64], the “OX2R Kb/OX1R Kb” value was 705.
As to `CCN(C(=O)c1cccc(C)c1-c1nnc(C)o1)[C@@H](C)COc1ccc(C(F)(F)F)cn1` [Example 20], the “OX2R Kb/OX1R Kb” value is recorded as 292.
Consider `CCN(C(=O)c1cc(OC)ccc1-n1nccn1)[C@@H](C)COc1ccc(Cl)cn1` [Example 33], for which the “OX2R Kb/OX1R Kb” value turned out to be 236.
Turning to `CCN(C(=O)c1ccc(Cl)cc1-n1nccn1)[C@@H](C)COc1ccc(C(F)(F)F)cn1` [Example 26], the “OX2R Kb/OX1R Kb” value turned out to be 400.
Consider `CCN(C(=O)c1ccccc1-c1nnc(C)o1)[C@@H](C)COc1ccc(C(F)(F)F)cn1` [Example 22], for which the “OX2R Kb/OX1R Kb” value stood at 168.

The series is the same for the next values; noted with them: Orexin A 0.5 nM; read-out: OX1R Kb (Orexin A concentration used).
Regarding `CCN(C(=O)c1ccccc1-c1nnc(C)o1)[C@@H](C)COc1ncc(C(F)(F)F)cc1F` [Example 68], the Kb was determined as 1.9 nM.
On the same count and under the same terms, with `CCN(C(=O)c1ccc(F)cc1-c1nnc(C)o1)[C@@H](C)COc1ncc(C(F)(F)F)cc1F` [Example 55] the figure was 7.2 nM; with `CCN(C(=O)c1ccc(C#N)cc1-n1nccn1)[C@@H](C)COc1ncc(C(F)(F)F)cc1F` [Example 69], 32 nM.
`CCN(C(=O)c1ccccc1-c1nnc(C)o1)[C@@H](C)COc1ccc(C(F)(F)F)cn1` [Example 22]: the Kb came to 0.93 nM.

The same series, now with this note: Orexin A 50 nM; read-out: OX1R Kb (Orexin A concentration used).
As for `CCN(C(=O)c1cc(F)ccc1-n1nccn1)[C@@H](C)COc1ccc(C(F)(F)F)cn1` [Example 3], the Kb is 0.28 nM.
Turning to `CCN(C(=O)c1cccc(F)c1-c1ncccn1)[C@@H](C)COc1ccc(Br)cn1` [Example 125], the Kb stood at 0.076 nM.
Still for that read-out and setting: with `CCN(C(=O)c1cccc(C)c1-c1nnc(C)o1)[C@@H](C)COc1ncc(C(F)(F)F)cc1F` [Example 64] the figure was 0.22 nM; with `CCN(C(=O)c1cccc(C)c1-c1nnc(C)o1)[C@@H](C)COc1ccc(C(F)(F)F)cn1` [Example 20], 0.12 nM; with `CCN(C(=O)c1cc(OC)ccc1-n1nccn1)[C@@H](C)COc1ccc(Cl)cn1` [Example 33], 0.14 nM.
Still for that read-out and setting: with `CCN(C(=O)c1ccc(Cl)cc1-n1nccn1)[C@@H](C)COc1ccc(C(F)(F)F)cn1` [Example 26] the figure was 0.055 nM; with `CCN(C(=O)c1ccccc1-c1nnc(C)o1)[C@@H](C)COc1ccc(C(F)(F)F)cn1` [Example 22], 1.2 nM.

The next series deals with T2, human orexin 2 receptor (Homo sapiens, UniProt O43614).
T2 construct: stably expressing the full-length human orexin 2 receptor; expressed in transfected cells; host or cells: CHO-K1 (CHO-K1/hOX2), co-expressing aequorin
T2 sequence (O43614 1-444): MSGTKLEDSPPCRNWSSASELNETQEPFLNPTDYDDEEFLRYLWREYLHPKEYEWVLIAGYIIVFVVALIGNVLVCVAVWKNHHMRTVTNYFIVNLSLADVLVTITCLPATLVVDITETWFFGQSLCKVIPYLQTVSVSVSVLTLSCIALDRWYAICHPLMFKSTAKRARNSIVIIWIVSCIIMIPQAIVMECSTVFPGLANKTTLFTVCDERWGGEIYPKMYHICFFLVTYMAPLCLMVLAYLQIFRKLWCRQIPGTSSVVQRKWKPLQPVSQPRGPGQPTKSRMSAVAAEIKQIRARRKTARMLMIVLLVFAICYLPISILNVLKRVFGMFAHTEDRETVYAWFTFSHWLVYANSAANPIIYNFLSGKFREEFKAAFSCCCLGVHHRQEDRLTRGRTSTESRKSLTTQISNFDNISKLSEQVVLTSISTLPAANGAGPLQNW
In words: Assay B: In vitro testing of OX2R potency: OX2R IP1 (HTRF, CHO-K1/hOX2 cells, Orexin A as agonist). Type of series: cell-based. The following applies: Orexin A 0.5 nM. From the text: Activation of the orexin receptors expressed in cell lines results in an increase in intracellular IP3 concentration. IP1, a downstream metabolite of IP3, accumulates in cells following receptor activation and is stable in the presence of LiCl. Using Homogeneous Time-Resolved Fluorescence technology with Lumi4-Tb cryptate (commercially available from Cisbio Bioassay.) and a suitable fluorescence plate reader. […] Chem. Genomics 2009, 3, 22-32. This technique is used to characterize pharmacological modification of the orexin receptors.
B. In Vitro Testing of OX2R Potency: OX2R IP1
IP1 measurements are performed in CHO-K1 cells stably expressing the full-length human orexin 2 receptor and the aequorin photoprotein. Cells are cultivated in Ham's nutrient mixture F12 medium with 10% fetal calf serum, in a 37° C., 95% humidity and 5% CO2 incubator. The CHO-K1/hOX2 cell mass is expanded to larger cell numbers. The cells are obtained as frozen cells in cryo-vials and stored until use at −150° C. The viability of the cells after thawing is >90%. In preparation for the assay, 24 hours before the assay, the cells are thawed at 37° C. and immediately diluted with cell culture medium. After centrifugation, the cell pellet is resuspended in medium and then distributed into the assay plates with a density of 5000 cells/25 μL per well. The plates are incubated for one hour at room temperature to reduce edge effects before they are incubated for 24 hours at 37° C./5% CO2. Compounds are prepared by a 8-point serial dilution in DMSO and a final dilution step into assay buffer (HBSS with 20 mM HEPES, 0.1% BSA and 50 mM LiCl, pH 7.4) to ensure a final DMSO concentration of 1% in the assay.
On the day of the assay, cells in the plate are washed twice with 60 μL assay buffer (20 μL buffer remained in the wells after washing), followed by adding 5 μL per well of compounds diluted in assay buffer. After 15 minutes of incubation at room temperature 5 μL per well of Orexin A peptide (final concentration: 0.5 nM) dissolved in assay buffer is added to the assay plate. The assay plate is incubated for 60 minutes at 37° C. Then 5 μL per well of Anti-IP1-Cryptate Tb solution and 5 μL per well of IP1-d2 dilution are added to all well of the plate and the plate is incubated for a further 60 minutes light protected at room temperature. The emission at 615 nm and 665 nm (Excitation wavelength: 320 nm) are measured using an EnVision reader (PerkinElmer). The ratio between the emission at 665 nm and 615 is calculated by the reader.
8-point four parametric non-linear curve fitting and determination of IC50 values and Hill slopes is performed using a regular analysis software e.g. AssayExplorer (Accelrys). In order to establish an agonist concentration independent parameter, Kb values are calculated using the following equation: IC50/((2+(A/EC50)n)^1/n−1) (with A=concentration agonist, EC50=EC50 agonist, n=Hill slope agonist) (see P. Leff, I. G. Dougall, Trends Pharmacol. Sci. 1993, 14(4), 110-112).
Kb values from Assay A (OX1R) and Assay B (OX2R) can then provide a selectivity ratio which is independent of the agonist (Orexin A) concentration.
In the case of `CCN(C(=O)c1ccccc1-c1nnc(C)o1)[C@@H](C)COc1ncc(C(F)(F)F)cc1F` [Example 68], the Kb was found to be 1000 nM.
In the case of `CCN(C(=O)c1cc(F)ccc1-n1nccn1)[C@@H](C)COc1ccc(C(F)(F)F)cn1` [Example 3], the Kb worked out at 44 nM.
On the same count and under the same terms, under `CCN(C(=O)c1cccc(F)c1-c1ncccn1)[C@@H](C)COc1ccc(Br)cn1` [Example 125] stands 27 nM; under `CCN(C(=O)c1cccc(C)c1-c1nnc(C)o1)[C@@H](C)COc1ncc(C(F)(F)F)cc1F` [Example 64], 155 nM; under `CCN(C(=O)c1ccc(F)cc1-c1nnc(C)o1)[C@@H](C)COc1ncc(C(F)(F)F)cc1F` [Example 55], 3100 nM.
In the case of `CCN(C(=O)c1cccc(C)c1-c1nnc(C)o1)[C@@H](C)COc1ccc(C(F)(F)F)cn1` [Example 20], the Kb turned out to be 35 nM.
In the case of `CCN(C(=O)c1cc(OC)ccc1-n1nccn1)[C@@H](C)COc1ccc(Cl)cn1` [Example 33], the Kb is 33 nM.
`CCN(C(=O)c1ccc(C#N)cc1-n1nccn1)[C@@H](C)COc1ncc(C(F)(F)F)cc1F` [Example 69] showed a Kb of 4340 nM.
Consider `CCN(C(=O)c1ccc(Cl)cc1-n1nccn1)[C@@H](C)COc1ccc(C(F)(F)F)cn1` [Example 26], for which the Kb worked out at 22 nM.
Same read-out and setting: under `CCN(C(=O)c1ccccc1-c1nnc(C)o1)[C@@H](C)COc1ccc(C(F)(F)F)cn1` [Example 22] stands 202 nM.
